# In patent US7060677B1, “Antimicrobial activity of the first cationic cluster of human lactoferrin” (priority 1999, dated 2006):
# Peptide text beside a SMILES is read from it.
# What was measured:
# bacterial infection = assay: Imaging microbial infections with 99mTc-labeled hLF and peptides; conditions: as described in Example VI
# Excerpt: (§1) The mice were placed in supine position on a planar gamma camera (Toshiba GCA 7100/UI. Tokyo, Japan) with both hind legs spread out and fixed with surgical tape. Continuous whole body acquisitions of the mice of each 60 s during the first hour after injection of the tracer were made with the gamma camera, equipped with a low-energy general purpose parallel-hole collimator. The camera was connected to a computer (GMS 5500 UI, Toshiba) and high-resolution images of the animals were stored as a 256×256 matrix. The energy peak was set at 140 keV with a window of 20%.
# (§2) On the scintigrams, anatomically adjusted regions of interest (ROI) were drawn over the various organs and both thighs providing data about clearance of ^99mTc-peptides and accumulation at the site of infection. […] The amount of radioactivity in the heart was corrected for decay and expressed as a percentage of injected dose (% ID).
# [1] = Pharmacology of 99mTc-labeled hLF and peptides by scintigraphy in infected mice
# Description: Lactoferrins and related peptides were labeled with ^99mTechnetium (^99mTc) as described (22, 23). Briefly, 10 μl of a peptide solution (1 mg/ml of HAc) was added to 2 μl of an aseptic solution of 0.5 mg of stannous pyrophosphate/ml (Dept. of Clinical Pharmacy and Toxicology. Leiden University Medical Center (LUMC). Leiden. The Netherlands). Immediately thereafter, 4 μl of a solution of 10 mg of KBH4 (crystalline. Sigma) per ml of 0.1 M NaOH was added. After addition of 0.1 ml of ^99mTc-sodium pertechnetate solution (200 MBq/ml. Mallinckrodt Medical BV, Petten, The Netherlands), the mixture was gently stirred at ambient temperature for 30 min and then was ready for use. Quality control of the labeling was performed by RP-HPLC analysis using a Sep-Pak C18 cartridge (Waters, Milford, Mass.) in 20 ml of 0.01 M HAc. After rinsing with 20 ml of 0.01 M HAc, proteins and peptides were eluted with 2 ml of methanol (Sigma).
# as §1, with “The camera was connected to a computer (GMS 5500 UI, Toshiba) and high-resolution images of the animals were stored as a 256×256 matrix.” left out
# as §2
# [2] = system: the various bacteria (L. monocytogenes, antibiotic resistant S. aureus, K. pneumoniae, E. coli); assay: Assay for antibacterial activity, statements on the various bacteria together; assay type: cell-based; conditions: FIGS. 2A–2D: 7 μM peptide, 1 h at 37° C., NaPB-TSB
# Description: Listeria monocytogenes strain EGD. Klebsiella pneumoniae (43816), and Escherichia coli O54 were purchased from the American Type Culture Collection (Rockville, Md.). Antibiotic resistant S. aureus, K. pneumoniae and E. coli were cultured overnight in nutrient broth (Oxoid, Basingstoke, UK) at 37° C., diluted in tryptase soya broth (TSB, Oxoid) and cultured for an additional 2 h in a shaking waterbath at 37° C. L. monocytogenes was cultured overnight in brain heart infusion broth (BHI, Oxoid) at 37° C. diluted and cultured for an additional 2 h in a shaking waterbath at 37° C.
# In short, bacteria were washed with phosphate-buffered saline (PBS) (pH 7.4) and diluted to a concentration of approximately 2×10^6 CFU/ml of phosphate-buffered saline (pH 6.0) supplemented with 0.1% (v/v) Tween-20 (hereafter designated as PBS-Tw). […] At various time intervals (range 0–4 h) after incubation at 37° C. the number of viable bacteria was determined microbiologically. As negative controls, bovine serum albumin (BSA; Sigma) or no peptide were included.
compound,measurement,setting,value
CC(C)[C@H](NC(=O)[C@H](CO)NC(=O)[C@H](CCCNC(=N)N)NC(=O)[C@H](CCCNC(=N)N)NC(=O)[C@H](CCCNC(=N)N)NC(=O)[C@H](CCCNC(=N)N)NC(=O)CN)C(=O)N[C@@H](CCC(N)=O)C(=O)N[C@@H](Cc1c[nH]c2ccccc12)C(=O)N[C@@H](CS)C(=O)N[C@@H](C)C(=O)O [hLF(1–11)] (H-GRRRRSVQWCA-OH; N-terminus and C-terminus assumed),Accumulation at the site of infection (in words),bacterial infection,rapidly accumulate at the site of infection
same,mean t1/2 of removal from the circulation,"[1]; 99mTc-labeled, S. aureus infected mice, n=3, radioactivity over the heart in first hour",~9 min
CC(C)[C@H](NC(=O)[C@H](CO)NC(=O)[C@H](CCCNC(=N)N)NC(=O)[C@H](CCCNC(=N)N)NC(=O)[C@H](CCCNC(=N)N)NC(=O)[C@@H](N)CCCNC(=N)N)C(=O)N[C@@H](CCC(N)=O)C(=O)N[C@@H](Cc1c[nH]c2ccccc12)C(=O)N[C@@H](CS)C(=O)N[C@@H](C)C(=O)O [hLF(2–11)] (H-RRRRSVQWCA-OH; N-terminus and C-terminus assumed),Accumulation at the site of infection (in words),bacterial infection,rapidly accumulate at the site of infection
CC(C)[C@H](NC(=O)[C@H](CO)NC(=O)[C@H](CCCNC(=N)N)NC(=O)[C@H](CCCNC(=N)N)NC(=O)[C@@H](N)CCCNC(=N)N)C(=O)N[C@@H](CCC(N)=O)C(=O)N[C@@H](Cc1c[nH]c2ccccc12)C(=O)N[C@@H](CS)C(=O)N[C@@H](C)C(=O)O [hLF(3–11)] (H-RRRSVQWCA-OH; N-terminus and C-terminus assumed),Accumulation at the site of infection (in words),bacterial infection,rapidly accumulate at the site of infection
CC(C)[C@H](NC(=O)[C@H](CO)NC(=O)[C@H](CCCNC(=N)N)NC(=O)[C@@H](N)CCCNC(=N)N)C(=O)N[C@@H](CCC(N)=O)C(=O)N[C@@H](Cc1c[nH]c2ccccc12)C(=O)N[C@@H](CS)C(=O)N[C@@H](C)C(=O)O [hLF(4–11)] (H-RRSVQWCA-OH; N-terminus and C-terminus assumed),mean t1/2 of removal from the circulation,"[1]; Swiss, mouse, in vivo",approximately 1 min
"CSCC[C@H](NC(=O)[C@H](CC(N)=O)NC(=O)[C@H](CCCNC(=N)N)NC(=O)[C@H](CCC(N)=O)NC(=O)[C@H](Cc1c[nH]c2ccccc12)NC(=O)[C@H](CCC(N)=O)NC(=O)[C@@H](N)Cc1ccccc1)C(=O)N[C@@H](CCCNC(=N)N)C(=O)N[C@@H](CCCCN)C(=O)N[C@H](C(=O)N[C@@H](CCCNC(=N)N)C(=O)O)C(C)C [hLF(21–31), reference compound] (H-FQWQRNMRKVR-OH; N-terminus and C-terminus assumed)",mean t1/2 of removal from the circulation,"[1]; Swiss, mouse, in vivo",~2 min
"hLF(5–11): synthetic fragment of hLF(1–11): residues 5–11 of hLF (SVQWCAV; UniProt P02788 24-30, looked up, fragment)",Bactericidal activity of synthetic peptides against the various bacteria (in words),[2],ineffective
"hLF(6–11): synthetic fragment of hLF(1–11): residues 6–11 of hLF (VQWCAV; UniProt P02788 25-30, looked up, fragment)",Bactericidal activity of synthetic peptides against the various bacteria (in words),[2],ineffective
